In patent US20130029970A1 (priority 2009, published 2013):

Key:
human CB2 (hCB2) = biological target: T1, human CB2 (hCB2) (Homo sapiens, UniProt P34972); test: 35S GTPγS binding assay, hCB2 agonist; type: biochemical; settings: GTPγS agonist, HEK-293 membranes; read-out: hCB2 EC50 (GTPyS ag)
T1 construct: (cDNA clone) CNR0200000
Procedure, shortened: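 Membranes (5 μg) from cells transfected with hCB2 cDNA in pcDNA3.1+ incubated with SPA beads, 0.1 nM [35S]GTPγS and 20 uM GDP in 50 mM HEPES pH 7.4, 100 mM NaCl, 5 mM MgCl2, 0.001% saponin, ± test compound. Incubation 90 min at room temperature; bound label read by scintillation counting.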

[1] = biological target: T2, recombinant human cannabinoid receptor CB1 (Homo sapiens, UniProt P21554); test: Cannabinoid receptor radioligand binding assay, [3H]-CP 55,940 displacement, hCB1
T2 construct: (cDNA clone) CNR01L000
Procedure, shortened: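 Membranes from HEK-293 cells stably expressing human CB1, 2-10 μg protein, incubated 90 min at room temperature with 0.5 nM [3H]-CP 55,940 in Tris-HCl pH 7.5, MgCl2, EDTA and 0.1% fatty-acid-free BSA. Bound radioactivity counted after rapid filtration; nonspecific binding defined with 1 μM unlabeled CP 55,940.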

T1 sequence (P34972 whole entry): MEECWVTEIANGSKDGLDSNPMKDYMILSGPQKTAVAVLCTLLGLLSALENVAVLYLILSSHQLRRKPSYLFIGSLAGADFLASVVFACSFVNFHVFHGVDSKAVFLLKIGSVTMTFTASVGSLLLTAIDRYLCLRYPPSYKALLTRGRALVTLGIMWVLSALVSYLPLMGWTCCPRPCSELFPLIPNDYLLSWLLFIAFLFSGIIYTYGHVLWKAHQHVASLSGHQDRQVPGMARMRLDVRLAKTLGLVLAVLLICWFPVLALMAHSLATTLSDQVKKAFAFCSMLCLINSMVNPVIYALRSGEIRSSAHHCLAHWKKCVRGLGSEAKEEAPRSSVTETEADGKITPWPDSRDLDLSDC
T2 sequence (P21554 whole entry): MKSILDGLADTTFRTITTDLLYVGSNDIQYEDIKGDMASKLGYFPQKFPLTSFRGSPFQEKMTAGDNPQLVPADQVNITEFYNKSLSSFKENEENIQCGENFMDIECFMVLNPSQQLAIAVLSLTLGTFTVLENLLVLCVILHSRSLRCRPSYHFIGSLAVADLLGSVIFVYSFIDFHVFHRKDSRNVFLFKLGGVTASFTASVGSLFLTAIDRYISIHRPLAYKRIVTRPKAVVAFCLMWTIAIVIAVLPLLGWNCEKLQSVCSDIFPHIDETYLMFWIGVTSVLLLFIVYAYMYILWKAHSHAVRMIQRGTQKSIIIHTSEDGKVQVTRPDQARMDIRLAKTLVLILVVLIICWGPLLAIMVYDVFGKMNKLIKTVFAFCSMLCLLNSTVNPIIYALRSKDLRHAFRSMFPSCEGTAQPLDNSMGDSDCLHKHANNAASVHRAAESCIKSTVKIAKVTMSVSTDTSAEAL

Cc1cc2cc(C(=O)c3cccc(Cl)c3)sc2n1CCN1CCOCC1 [Compound 4, (3-Chlorophenyl)(5-methyl-6-(2-morpholinoethyl)-6H-thieno[2,3-b]pyrrol-2-yl)methanone]
EC50 (human CB2 (hCB2)): < 0.1 µM | IC50 [1]: 1 to 10 µM

Cc1cc2cc(C(=O)c3ccccc3)sc2n1CCN1CCOCC1 [Compound 7, (5-Methyl-6-(2-morpholinoethyl)-6H-thieno[2,3-b]pyrrol-2-yl)(phenyl)methanone]
EC50 (human CB2 (hCB2)): 0.1 to 1 µM | IC50 [1]: 1 to 10 µM

Cc1cc2cc(C(=O)c3ccc(Cl)cc3Cl)sc2n1CCN1CCOCC1 [Compound 10, (2,4-Dichlorophenyl)(5-methyl-6-(2-morpholinoethyl)-6H-thieno[2,3-b]pyrrol-2-yl)methanone]
EC50 (human CB2 (hCB2)): < 0.1 µM | IC50 [1]: 0.1 to 1 µM

Cc1ccccc1C(=O)c1cc2cc(C)n(CCN3CCOCC3)c2s1 [Compound 12, (5-Methyl-6-(2-morpholinoethyl)-6H-thieno[2,3-b]pyrrol-2-yl)(o-tolyl)methanone]
EC50 (human CB2 (hCB2)): < 0.1 µM | IC50 [1]: 1 to 10 µM

CCn1c(C)cc2cc(C(=O)c3cccc(Cl)c3Cl)sc21 [Compound 19, (2,3-Dichlorophenyl)(6-ethyl-5-methyl-6H-thieno[2,3-b]pyrrol-2-yl)methanone]
EC50 (human CB2 (hCB2)): 0.1 to 1 µM | IC50 [1]: > 10 µM

CCS(=O)(=O)n1c(C)cc2cc(C(=O)c3cccc(Cl)c3Cl)sc21 [Compound 25, (2,3-Dichlorophenyl)(6-(ethylsulfonyl)-5-methyl-6H-thieno[2,3-b]pyrrol-2-yl)methanone]
EC50 (human CB2 (hCB2)): < 0.1 µM | IC50 [1]: 1 to 10 µM

COc1cccc(C(=O)c2cc3cc(C)n(CCN4CCOCC4)c3s2)c1 [Compound 26, (3-Methoxyphenyl)(5-methyl-6-(2-morpholinoethyl)-6H-thieno[2,3-b]pyrrol-2-yl)methanone]
EC50 (human CB2 (hCB2)): < 0.1 µM | IC50 [1]: 0.1 to 1 µM

Cc1cc2cc(C(=O)c3cccc(Cl)c3Cl)sc2n1CC1CCOCC1 [Compound 31, (2,3-Dichlorophenyl)(5-methyl-6-((tetrahydro-2H-pyran-4-yl)methyl)-6H-thieno[2,3-b]pyrrol-2-yl)methanone]
EC50 (human CB2 (hCB2)): < 0.1 µM | IC50 [1]: 0.1 to 1 µM

Cc1cc2cc(Cc3cccc(Cl)c3Cl)sc2n1CCN1CCOCC1 [Compound 32, 4-(2-(2-(2,3-Dichlorobenzyl)-5-methyl-6H-thieno[2,3-b]pyrrol-6-yl)ethyl)morpholine]
EC50 (human CB2 (hCB2)): < 0.1 µM | IC50 [1]: 1 to 10 µM

Cc1cc2cc(C(=O)c3cccc(Cl)c3Cl)sc2n1CCCNS(C)(=O)=O [Compound 37, N-(3-(2-(2,3-Dichlorobenzoyl)-5-methyl-6H-thieno[2,3-b]pyrrol-6-yl)propyl)methanesulfonamide]
EC50 (human CB2 (hCB2)): < 0.1 µM | IC50 [1]: > 10 µM

Cc1cc2cc(C(=O)c3cccc(Cl)c3Cl)sc2n1S(=O)(=O)C(C)C [Compound 38, (2,3-Dichlorophenyl)(6-(isopropylsulfonyl)-5-methyl-6H-thieno[2,3-b]pyrrol-2-yl)methanone]
EC50 (human CB2 (hCB2)): < 0.1 µM | IC50 [1]: 1 to 10 µM

CCS(=O)(=O)n1c(C)cc2cc(C(=O)c3ccccc3Cl)sc21 [Compound 42, (2-Chlorophenyl)(6-(ethylsulfonyl)-5-methyl-6H-thieno[2,3-b]pyrrol-2-yl)methanone]
EC50 (human CB2 (hCB2)): < 0.1 µM | IC50 [1]: 1 to 10 µM

CCS(=O)(=O)n1c(C)cc2cc(C(=O)c3cccnc3Cl)sc21 [Compound 43, (2-Chloropyridin-3-yl)(6-(ethylsulfonyl)-5-methyl-6H-thieno[2,3-b]pyrrol-2-yl)methanone]
EC50 (human CB2 (hCB2)): < 0.1 µM | IC50 [1]: > 10 µM

COc1ccc(C(=O)c2cc3cc(C)n(CCCNS(C)(=O)=O)c3s2)cc1 [Compound 44, N-(3-(2-(4-methoxybenzoyl)-5-methyl-6H-thieno[2,3-b]pyrrol-6-yl)propyl)methanesulfonamide]
EC50 (human CB2 (hCB2)): < 0.1 µM | IC50 [1]: 1 to 10 µM

COc1ncccc1C(=O)c1cc2cc(C)n(CCN3CCOCC3)c2s1 [Compound 47, (2-Methoxypyridin-3-yl)(5-methyl-6-(2-morpholinoethyl)-6H-thieno[2,3-b]pyrrol-2-yl)methanone]
EC50 (human CB2 (hCB2)): 0.1 to 1 µM | IC50 [1]: > 10 µM
